“Also recorded” adds a separate entry of the source.
Key:
alpha-1 adrenoceptors = conditions: read-out: IC50, affinity for alpha-1 adrenoceptors; cited from earlier work
[1] = test system: human micro-heart tissues (NuHeart); assay: Mature NuHeart micro-heart tissue with and without TGFβ: length-tension, contractile force, ISO response, αSM actin; format: cell-based
Procedure: FIG. 11C-11F graphically show length-tension relationships of cardiac systolic ([…]) and diastolic (FIG. 10E, FIG. 10F) curves, monitored>30 days with and without TGFβ (10 ng/mL).
FIG. 11G is a bar graph illustrating that the positive inotropic response to ISO ([…]) were compared with and without TGFβ (bars=s.d., n=7) at the end of 35-day tissue development.
FIG. 11I-11J show profiles of cardiac contractile force with and without TGFβ.
A semi-automated, multi-point quality control (QC) production-process fabricated mature micro-heart tissues in 96-well format. The patient-derived (or gene-edited) iPSCs that were passed the QC test of pluripotency and purity go through the next step. This robust protocol of iPSC differentiation produced cardiomyocytes and non-muscle cells. Various parameters were optimized to produce highly purified (>95%) cardiomyocytes and cardiac non-muscle cells. Various differentiation techniques, a culture robot ACTRO™, and culture media may be used for cardiomyocyte (CM) differentiation and maintenance development and validation. FIGS. 9A-9D show mass-produced micro-heart tissues and their mature phenotype, which were assessed for their response to various positive inotropic and chronotropic agents (FIGS. 10A-10D). To grow mature micro-heart tissue, physiological (15% strain=~2.13 μm sarcomere length) stretching cycles were applied, in addition to constant bi-phasic, low energy (5-10 V, 1 ms duration) electrical stimulation, and maturation medium containing appropriate concentrations and combinations of fatty acids and other factors, including triiodothyronine, dexamethasone, taurine, creatine, and L-carnitine were used.
Human micro-heart tissues cultured for 35 days with electrical stimulation matured and loose its spontaneous beating. Myocardial fibrosis is more prevalent in HFpEF than in control, and Transforming growth factor beta (TGFβ) is a major profibrotic factor. […] The elevated diastolic stiffness and loss of contractile reserve are common in HFpEF patients. Some HFpEF patients, including hypertrophic cardiomyopathy, show a hypercontractile phenotype. A TGF-β signaling pathway in the pathogenesis of diabetes mellitus (DM) is well-known. Moreover, in rat models, the presence of diabetes led to the induction of a fetal gene program, typically seen in the setting of TGF-β over-expression and hypertrophy. Therefore, human induced pluripotent stem cell (iPSC) derived micro-heart tissue (NuHeart™ micro-heart tissue) will be used with TGFβ-treatment as a base of the proposed studies.
A force probe stretching approach was used to record the length-tension relationship to analyze cardiac contractility and stiffness of micro-heart tissue. Micro force-transducers (FIG. 11) of the mechanical assay device, Palpator™, measured resistance forces that were required to stretch micro-heart tissue growing in 96-well plates. As the probe moved down by a motorized arm, samples' cardiac contractile and baseline forces were measured at different tissue lengths. Sarcomere length was calibrated to strain (% of stretch over original sample length) according to a published protocol (Asnes, C. F. et al. Biophys. J. 2006. 91(5): pp. […]). (Fourier analysis of sarcomere patterns in fixed micro-heart tissue). In addition, other biological indicators such as calcium transients and action potential are measured using biological indicator dyes and high throughput microplate readers (FIGS. 13A-C). For example, micro-heart tissue with cardiomyocytes derived from gene-edited iPSC-derived cardiomyocytes was fabricated with a cardiac troponin T R92Q mutation (familial hypertrophic cardiomyopathy, i.e., “[…]”).

[2] = test system: human micro-heart tissues (iPSC-derived cardiomyocytes and non-muscle cells, mainly fibroblasts); assay: Biomechanical assay (length-tension) on micro-heart tissue constructs; format: cell-based; conditions: for micro-heart tissue construct's stiffness (diastolic/passive stiffness): FIG. 7B
Description: The micro-heart tissue fabrication process produced micro-heart tissues using human cardiomyocytes derived from induced pluripotent stem cells (iPSCs) and non-muscle cells, mainly fibroblasts. Therefore, fasudil is a promising drug candidate to reduce elevated diastolic stiffness of patients with heart failure with preserved ejection fraction (HFpEF). The development of fibrosis in the heart is observed in various types of cardiomyopathies, and heart failure (HF). Myocardial interstitial fibrosis, for example, contributes to left ventricular dysfunction leading to the development of heart failure. Fibrotic myocardium becomes stiffer than healthy tissue to develop diastolic dysfunction. Fasudil targets Rho-kinase (ROCK) that regulates the activity of non-muscle myosin independent of calcium homeostasis. Human cardiac fibroblasts express ROCK1 and ROCK2, which both regulate non-muscle cell contractility similarly. The reduction of ROCK2 had notable effects on the profibrotic gene (FIGS. 7A-B) and protein expression (FIGS. 7A-B).
A force probe stretching approach was used to record the length-tension relationship to analyze cardiac contractility and stiffness of micro-heart tissue. Micro force-transducers (FIG. 11) of the mechanical assay device, Palpator™, measured resistance forces that were required to stretch micro-heart tissue growing in 96-well plates. As the probe moved down by a motorized arm, samples' cardiac contractile and baseline forces were measured at different tissue lengths. Sarcomere length was calibrated to strain (% of stretch over original sample length) according to a published protocol (Asnes, C. F. et al. Biophys. J. 2006. 91(5): pp. 1800-1180). (Fourier analysis of sarcomere patterns in fixed micro-heart tissue). In addition, other biological indicators such as calcium transients and action potential are measured using biological indicator dyes and high throughput microplate readers (FIGS. 13A-C). […]

[3] = test system: tissue constructs reconstituted with human fibroblasts / myofibroblasts; assay: Biomechanical phenotyping assay: isometric force on stretched bioengineered tissue constructs; format: cell-based
Description: Fasudil (FIG. 1) is a small molecule inhibitor of Rho-kinase (ROCK) that regulates its downstream signal transduction pathways and biological activities, including smooth muscle cells' contractility. InvivoSciences's biomechanical phenotyping assay recorded isometric force by stretching bioengineered tissue-constructs (see, U.S. Pat. No. 10,732,174). The tissue constructs were reconstituted with human fibroblasts that recapitulate connective tissues. Those tissue constructs reconstituted with myofibroblasts recapitulate connective tissue developing fibrosis.

[4] = intravenous formulations; Satoh et al., Life Sci 2001; cited from earlier work
[5] = test system: engineered heart tissues (EHTs) derived from human induced pluripotent stem cells; assay: Long-term fasudil effects on engineered heart tissues (EHTs) with and without TGFβ, stress versus strain; format: cell-based; conditions: short-term administration (less than 24 hours)
[6] = test system: engineered heart tissues (EHTs) derived from human induced pluripotent stem cells; assay: as above; format: cell-based
Procedure: FIGS. 16A-16D graphically illustrate the long-term effects of fasudil. The rates of stretch relative to the unstretched tissue length are depicted as strain (error bar=standard deviation of error). Number of samples are 2 or 4 in each condition.
To exemplify this patient stratification process, engineered heart tissues (EHTs) were prepared, the tissues containing cardiac fibroblasts (10% of cardiomyocytes at fabrication) derived from human induced pluripotent stem cells (iPSCs). Five days post-fabrication, one half of the engineered heart tissues (EHTs) was cultured regularly (FIG. 16A and FIG. 16C), and the other half was treated with 1 ng/mL TGFβ (FIG. 16B and FIG. 16D). […] The effect was clearly represented in the elevated passive stress-strain curve and its slope represented by the closed circles (0 μM fasudil data points) in FIG. 16C and FIG. 16D.
After 15 days, the EHTs, both with and without TGFβ treatment, were administered fasudil at concentrations of […] (FIGS. 16A-16D). […] However, by day 29, fasudil reduced cardiac contractility in EHTs, irrespective of TGFβ treatment.

[7] = NuHeart micro-heart tissue without TGFβ
[8] = long-term administration (3-14 days)
[9] = TGFβ-treated micro-heart (10 ng/mL, monitored >30 days)

CN1CCN(C2=Nc3cc(F)ccc3Cc3ccccc32)CC1 [Fluperlapine]
IC50 (alpha-1 adrenoceptors): ~10 nM

CC(C)NCC(O)c1ccc(O)c(O)c1 (stereo not shown) [ISO, isoproterenol]
contractile amplitude [1, 7]: increased
duration of contraction (chrotropic response) [1, 7]: shortened
response of mature micro-heart tissues ([1]; after isoproterenol (ISO) treatment): positive inotropic and chronotropic responses
response of contractile force to ISO ([1]; micro-heart tissue with TGFβ): blunted response

O=S(=O)(c1cccc2cnccc12)N1CCCNCC1 [fasudil, Fasudil]
cardiac contractility of the micro-heart tissues ([2]; FIG. 7A): did not change
micro-heart tissue construct's stiffness (diastolic/passive stiffness) [2]: reduced the micro-heart tissue construct's stiffness dose-dependently
micro-heart tissue construct's stiffness (diastolic/passive stiffness) ([2]; listed as Fasudil): reduced
contractility of tissue constructs [3]: reduced
tissue stiffness of tissue constructs [3]: reduced
plasma concentration [4]: approximately 0.36 μM
cardiac contractility in EHTs [5]: without significantly affecting
passive stiffness in EHTs [5]: effectively reduced
cardiac contractility in TGFβ-treated EHTs ([6]; 10 μM fasudil, by day 29): substantially reduce
effect on passive stiffness, TGFβ-treated tissues versus untreated ([6]; TGFβ-treated (1 ng/mL) EHTs): more pronounced effect
passive stiffness of EHTs ([6]; both with and without TGFβ (1 ng/mL) treatment, fasudil 1, 3, 10 µM): effectively reduced
cardiac contractility in EHTs ([6]; by day 29, irrespective of TGFβ treatment): reduced
cardiac contractility in EHTs [6, 8]: reduce
passive stiffness in EHTs [6, 8]: reduce
impact on cardiac contractility ([6]; one day after treatment (data not shown)): less significant

Transforming growth factor beta [TGFβ]
αSM actin expression ([1]; TGFβ treated sample, Western blot): increased expression; also recorded: elevated
cardiac contractility of micro-heart [1, 9]: increasing
diastolic stress (stiffening) of micro-heart [1, 9]: increasing
ISO-induced positive inotropic and chronotropic responses ([1]; chronic TGFβ treatment): impaired
passive stiffness of EHTs ([6]; 1 ng/mL TGFβ from five days post-fabrication, 0 μM fasudil): increased

— patent US20260216205A1, “SYSTEMS AND METHODS FOR TREATING HEART FAILURE WITH PRESERVED EJECTION FRACTION” (INVIVOSCIENCES INC., priority 2023, published 2026)
